What was measured:
Settings in all cases: exposure time: 72 h
E31 [1] = patient-derived glioblastoma stem cells of proneural subtype; experiment: surviving fraction (nuclei count normalised to DMSO); higher = more cells surviving (less toxic)
E21 [2] = patient-derived glioblastoma stem cells of mesenchymal subtype; experiment: as above
E28 [3] = patient-derived glioblastoma stem cells of classical subtype; experiment: as above
E34 [4] = patient-derived glioblastoma stem cells of proneural subtype; experiment: as above
E57 [5] = patient-derived glioblastoma stem cells of mesenchymal subtype; experiment: as above
FT3469 [6] = normal neural stem cell line; experiment: as above
E13 [7] = patient-derived glioblastoma stem cells of classical subtype; experiment: as above
E31 [8] = experiment: phenotypic distance (Euclidean, principal components) from DMSO controls (arbitrary units); higher = stronger morphological change
E21 [9] = experiment: as above
E28 [10] = experiment: as above
E34 [11] = experiment: as above
E57 [12] = experiment: as above
FT3469 [13] = experiment: as above
E13 [14] = experiment: as above
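Wherever phenotypic distance (Euclidean, principal components) from DMSO controls is given: cell Painting imaging in 384-well plates, CellProfiler features reduced to at least 20 principal components, Euclidean distance versus same-plate DMSO vehicle wells (0.1% v/v), median over six images per well.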
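Wherever surviving fraction (nuclei count normalised to DMSO) is given: nuclei counted by high-content imaging of Hoechst-stained cells in laminin-coated 384-well plates, relative to 0.1% DMSO vehicle wells, with staurosporine as cell-death control.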

C#C[C@]1(O)CC[C@H]2[C@@H]3CCC4=CCCC[C@@H]4[C@H]3CC[C@@]21C [Lynestrenol]
Settings | phenotypic distance | surviving fraction
E13 [7], 4.1 nM | – | 0.994
E13 [7], 12.3 nM | – | 0.901
E13 [7], 37 nM | – | 1.03
E13 [7], 111.1 nM | – | 1.05
E13 [7], 333.3 nM | – | 1.03
E13 [7], 1000 nM | – | 1.04
E13 [7], 3000 nM | – | 0.88
E13 [14], 4.1 nM | 0.399 | –
E13 [14], 12.3 nM | 0.621 | –
E13 [14], 37 nM | 0.422 | –
E13 [14], 111.1 nM | 0.821 | –
E13 [14], 333.3 nM | 0.697 | –
E13 [14], 1000 nM | 0.59 | –
E13 [14], 3000 nM | 1.03 | –
E21 [2], 4.1 nM | – | 1.03
E21 [2], 12.3 nM | – | 0.998
E21 [2], 37 nM | – | 1.01
E21 [2], 111.1 nM | – | 1.08
E21 [2], 333.3 nM | – | 1.07
E21 [2], 1000 nM | – | 0.975
E21 [2], 3000 nM | – | 1.08
E21 [9], 4.1 nM | 0.397 | –
E21 [9], 12.3 nM | 0.584 | –
E21 [9], 37 nM | 0.589 | –
E21 [9], 111.1 nM | 0.676 | –
E21 [9], 333.3 nM | 0.662 | –
E21 [9], 1000 nM | 0.692 | –
E21 [9], 3000 nM | 1.35 | –
E28 [3], 4.1 nM | – | 1.06
E28 [3], 12.3 nM | – | 1.05
E28 [3], 37 nM | – | 0.924
E28 [3], 111.1 nM | – | 1.04
E28 [3], 333.3 nM | – | 1.09
E28 [3], 1000 nM | – | 1.16
E28 [3], 3000 nM | – | 1.16
E28 [10], 4.1 nM | 0.488 | –
E28 [10], 12.3 nM | 0.735 | –
E28 [10], 37 nM | 0.493 | –
E28 [10], 111.1 nM | 0.306 | –
E28 [10], 333.3 nM | 0.694 | –
E28 [10], 1000 nM | 0.828 | –
E28 [10], 3000 nM | 0.566 | –
E31 [1], 4.1 nM | – | 0.991
E31 [1], 12.3 nM | – | 1.12
E31 [1], 37 nM | – | 0.813
E31 [1], 111.1 nM | – | 1.26
E31 [1], 333.3 nM | – | 0.895
E31 [1], 1000 nM | – | 1.07
E31 [1], 3000 nM | – | 1.09
E31 [8], 4.1 nM | 0.539 | –
E31 [8], 12.3 nM | 0.803 | –
E31 [8], 37 nM | 0.671 | –
E31 [8], 111.1 nM | 0.989 | –
E31 [8], 333.3 nM | 0.806 | –
E31 [8], 1000 nM | 0.394 | –
E31 [8], 3000 nM | 1.33 | –
E34 [4], 4.1 nM | – | 0.966
E34 [4], 12.3 nM | – | 0.988
E34 [4], 37 nM | – | 0.917
E34 [4], 111.1 nM | – | 1.24
E34 [4], 333.3 nM | – | 1.03
E34 [4], 1000 nM | – | 0.979
E34 [4], 3000 nM | – | 0.946
E34 [11], 4.1 nM | 0.505 | –
E34 [11], 12.3 nM | 0.89 | –
E34 [11], 37 nM | 0.743 | –
E34 [11], 111.1 nM | 0.994 | –
E34 [11], 333.3 nM | 0.472 | –
E34 [11], 1000 nM | 0.846 | –
E34 [11], 3000 nM | 0.609 | –
E57 [5], 4.1 nM | – | 1.2
E57 [5], 12.3 nM | – | 1.03
E57 [5], 37 nM | – | 1.04
E57 [5], 111.1 nM | – | 1.06
E57 [5], 333.3 nM | – | 1.08
E57 [5], 1000 nM | – | 1.17
E57 [5], 3000 nM | – | 1.08
E57 [12], 4.1 nM | 0.911 | –
E57 [12], 12.3 nM | 0.621 | –
E57 [12], 37 nM | 0.561 | –
E57 [12], 111.1 nM | 0.889 | –
E57 [12], 333.3 nM | 0.765 | –
E57 [12], 1000 nM | 0.843 | –
E57 [12], 3000 nM | 0.439 | –
FT3469 [6], 4.1 nM | – | 1.1
FT3469 [6], 12.3 nM | – | 1.19
FT3469 [6], 37 nM | – | 0.984
FT3469 [6], 111.1 nM | – | 1.26
FT3469 [6], 333.3 nM | – | 1.07
FT3469 [6], 1000 nM | – | 1.13
FT3469 [6], 3000 nM | – | 1.06
FT3469 [13], 4.1 nM | 0.64 | –
FT3469 [13], 12.3 nM | 1.14 | –
FT3469 [13], 37 nM | 0.738 | –
FT3469 [13], 111.1 nM | 1.23 | –
FT3469 [13], 333.3 nM | 0.567 | –
FT3469 [13], 1000 nM | 0.796 | –
FT3469 [13], 3000 nM | 0.874 | –

Source: the supplement of paper PMC13207355
